Experimental data from ChEMBL document CHEMBL4715772, “A facile stereoselective synthesis of dispiro-indeno pyrrolidine/pyrrolothiazole-thiochroman hybrids and evaluation of their antimycobacterial, anticancer and AchE inhibitory activities” (Bioorg Med Chem, 2016).
Converted amounts (≈) assume the structure as drawn.

Experiments:
Acetylcholinesterase = Acetylcholinesterase (Homo sapiens, UniProt P22303); assay: Inhibition of AChE (unknown origin) using acetylthiocholine chloride as substrate preincubated with enzyme for 15 mins followed by substrate addition by Ellman's method
Sequence of Acetylcholinesterase (P22303 whole entry): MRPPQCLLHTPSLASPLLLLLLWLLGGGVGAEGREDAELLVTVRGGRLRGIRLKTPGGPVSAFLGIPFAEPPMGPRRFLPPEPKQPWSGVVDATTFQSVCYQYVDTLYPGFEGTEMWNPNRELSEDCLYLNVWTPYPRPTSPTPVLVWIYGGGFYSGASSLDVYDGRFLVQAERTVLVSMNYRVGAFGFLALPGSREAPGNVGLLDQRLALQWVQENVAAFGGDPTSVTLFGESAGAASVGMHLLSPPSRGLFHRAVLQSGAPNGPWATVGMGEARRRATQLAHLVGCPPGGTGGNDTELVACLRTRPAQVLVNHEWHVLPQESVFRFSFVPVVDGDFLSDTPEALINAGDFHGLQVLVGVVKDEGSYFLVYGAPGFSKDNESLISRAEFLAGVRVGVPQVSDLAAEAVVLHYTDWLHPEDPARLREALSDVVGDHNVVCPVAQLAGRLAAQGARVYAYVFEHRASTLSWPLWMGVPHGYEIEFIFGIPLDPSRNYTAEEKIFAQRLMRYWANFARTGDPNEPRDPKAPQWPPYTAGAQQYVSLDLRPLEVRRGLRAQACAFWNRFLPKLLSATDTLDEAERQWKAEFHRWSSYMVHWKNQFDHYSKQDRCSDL

MCF7 [1] = assay: Antiproliferative activity against human MCF7 cells assessed as inhibition of cell proliferation at 50 uM incubated for 72 hrs by CellTiter-Glo assay relative to control; assay type: functional; conditions: MCF7, read-out: INH
HT-29 = assay: Antiproliferative activity against human HT-29 cells assessed as inhibition of cell proliferation incubated for 72 hrs by CellTiter-Glo assay; assay type: functional, cell-based; conditions: HT-29, 72 h
MCF7 [2] = assay: Antiproliferative activity against human MCF7 cells assessed as inhibition of cell proliferation incubated for 72 hrs by CellTiter-Glo assay; assay type: functional, cell-based; conditions: MCF7, 72 h
[3] = tested on: Mycobacterium tuberculosis; assay: Antimycobacterial activity against Mycobacterium tuberculosis H37Rv assessed as inhibition of bacterial growth by microdilution alamar blue broth assay; assay type: functional, organism-based
[4] = Cytotoxicity against African green monkey Vero cells assessed as cell viability after 72 hrs by MTT assay; assay type: cell-based; conditions: chlorocebus sabaeus, read-out: MNCC
[5] = tested on: Mycobacterium tuberculosis; assay: Potency index, ratio of pyrimethamine IC50 to test compound IC50 for antimycobacterial activity against Mycobacterium tuberculosis H37Rv by microdilution alamar blue broth assay; assay type: functional
[6] = tested on: Mycobacterium tuberculosis; assay: Potency index, ratio of cycloserine IC50 to test compound IC50 for antimycobacterial activity against Mycobacterium tuberculosis H37Rv by microdilution alamar blue broth assay; assay type: functional

SMILES	IC50 (Acetylcholinesterase)	inhibition at 50 µM (MCF7 [1])	IC50 (HT-29)	IC50 (MCF7 [2])	IC50 [3]	IC90 [3]	MIC [3]	MNTC at 72 h [4]	Ratio IC50 [5]	Ratio IC50 [6]
O=C1c2ccccc2C(=O)C12N1CSC[C@@H]1[C@@H](c1ccccc1)[C@@]21CSc2ccccc2C1=O	12.9 µM	< 50%	92.2 µM	93.5 µM	16.3 µM	25.5 µM	100 µM (≈ 48.4 µg/mL)	> 6.25 µg/mL		
O=C1c2ccccc2C(=O)C12N1CSC[C@@H]1[C@@H](c1cccc3ccccc13)[C@@]21CSc2ccccc2C1=O	16.5 µM	< 50%	93.4 µM	102 µM	28.6 µM	47.7 µM	50 µM (≈ 26.7 µg/mL)	> 6.25 µg/mL		
CCc1nc(N)nc(N)c1-c1ccc(Cl)cc1 [PYRIMETHAMINE]							100 µM (≈ 24.9 µg/mL)	> 6.25 µg/mL		
CC[C@@H](CO)NCCN[C@@H](CC)CO [ETHAMBUTOL]					< 1.56 µM		12.5 µM (≈ 2.55 µg/mL)	> 6.25 µg/mL		
CN1C[C@@H](c2ccc(F)cc2)[C@@]2(CSc3ccccc3C2=O)C12C(=O)c1ccccc1C2=O	23.3 µM	< 50%	99.6 µM	105 µM	11.1 µM	22 µM	50 µM (≈ 22.9 µg/mL)	> 6.25 µg/mL		
CN1CC(c2ccccc2Br)[C@@]2(CSc3ccccc3C2=O)C12C(=O)c1ccccc1C2=O (single isomer, unassigned)	27.1 µM	< 50%	86.8 µM	92.9 µM	18.3 µM	36.5 µM	50 µM (≈ 25.9 µg/mL)	> 6.25 µg/mL		
CC(C)c1ccc([C@@H]2CN(C)C3(C(=O)c4ccccc4C3=O)[C@]23CSc2ccccc2C3=O)cc1	19.8 µM	< 50%	98.3 µM	93 µM	25.9 µM	44.6 µM	100 µM (≈ 48.2 µg/mL)	> 6.25 µg/mL		
COc1cccc2c1C(=O)c1c(O)c3c(c(O)c1C2=O)C[C@@](O)(C(=O)CO)C[C@@H]3O[C@H]1C[C@H](N)[C@H](O)[C@H](C)O1 [DOXORUBICIN]			12.9 µM							
O=C1c2ccccc2C(=O)C12N1CSC[C@@H]1[C@@H](c1ccc(Br)cc1)[C@@]21CSc2ccccc2C1=O	34.6 µM	< 50%	86.8 µM	92.9 µM	21.9 µM	47.9 µM	50 µM (≈ 28.1 µg/mL)	> 6.25 µg/mL		
O=C1c2ccccc2C(=O)C12N1CSC[C@@H]1C(c1ccccc1Cl)[C@@]21CSc2ccccc2C1=O (single isomer, unassigned)	33.2 µM	< 50%	88.1 µM	101 µM	8.57 µM	14.7 µM	50 µM (≈ 25.9 µg/mL)	> 6.25 µg/mL		
CC(C)c1ccc([C@@H]2[C@H]3CSCN3C3(C(=O)c4ccccc4C3=O)[C@]23CSc2ccccc2C3=O)cc1	28.3 µM	< 50%	93.4 µM	91.8 µM	45 µM	76.4 µM	100 µM (≈ 52.6 µg/mL)	> 6.25 µg/mL		
Cc1ccc([C@@H]2[C@H]3CSCN3C3(C(=O)c4ccccc4C3=O)[C@]23CSc2ccccc2C3=O)cc1	7.11 µM	< 50%	90 µM	107 µM	28.6 µM	47.7 µM	50 µM (≈ 24.9 µg/mL)	> 6.25 µg/mL		
CN1C[C@@H](c2cccc3ccccc23)[C@@]2(CSc3ccccc3C2=O)C12C(=O)c1ccccc1C2=O	2.12 µM	< 50%	97.2 µM	86 µM	6.87 µM	14.6 µM	25 µM (≈ 12.2 µg/mL)	> 6.25 µg/mL		
N[C@@H]1CONC1=O [CYCLOSERINE]							25 µM (≈ 2.55 µg/mL)	> 6.25 µg/mL		
O=C1c2ccccc2C(=O)C12N1CSC[C@@H]1[C@@H](c1ccc(Cl)cc1)[C@@]21CSc2ccccc2C1=O	21.3 µM	< 50%	76.7 µM	104 µM	7.2 µM	15.5 µM	50 µM (≈ 25.9 µg/mL)	> 6.25 µg/mL		
O=C1c2ccccc2C(=O)C12N1CSC[C@@H]1[C@@H](c1cccc(F)c1)[C@@]21CSc2ccccc2C1=O	12.2 µM	< 50%	91.7 µM	116 µM	16.4 µM	22 µM	50 µM (≈ 25.1 µg/mL)	> 6.25 µg/mL		
CN1C[C@@H](c2ccc(Cl)cc2)[C@@]2(CSc3ccccc3C2=O)C12C(=O)c1ccccc1C2=O	22.2 µM	< 50%	94 µM	97 µM	8.46 µM	12.4 µM	50 µM (≈ 23.7 µg/mL)	> 6.25 µg/mL		

SMILES	IC50 (Acetylcholinesterase)	inhibition at 50 µM (MCF7 [1])	IC50 (HT-29)	IC50 (MCF7 [2])	IC50 [3]	IC90 [3]	MIC [3]	MNTC at 72 h [4]	Ratio IC50 [5]	Ratio IC50 [6]
CN1C[C@@H](c2cccc(Br)c2)[C@@]2(CSc3ccccc3C2=O)C12C(=O)c1ccccc1C2=O	19.8 µM	< 50%	108 µM	110 µM	5.81 µM	16.1 µM	25 µM (≈ 13 µg/mL)	> 6.25 µg/mL		
O=C1c2ccccc2C(=O)C12N1CSC[C@@H]1[C@@H](c1cccs1)[C@@]21CSc2ccccc2C1=O	19.1 µM	< 50%	94 µM	97 µM	12.9 µM	24.6 µM	50 µM (≈ 24.5 µg/mL)	> 6.25 µg/mL		
O=C1c2ccccc2C(=O)C12N1CSC[C@@H]1[C@@H](c1ccc(F)cc1)[C@@]21CSc2ccccc2C1=O	19.8 µM	< 50%	95.9 µM	116 µM	13.2 µM	25.9 µM	50 µM (≈ 25.1 µg/mL)	> 6.25 µg/mL		
Cc1ccc([C@@H]2CN(C)C3(C(=O)c4ccccc4C3=O)[C@]23CSc2ccccc2C3=O)cc1	6.6 µM	< 50%	101 µM	105 µM	47.2 µM	66.5 µM	100 µM (≈ 45.4 µg/mL)	> 6.25 µg/mL		
CN1C[C@@H](c2ccc(Br)cc2)[C@@]2(CSc3ccccc3C2=O)C12C(=O)c1ccccc1C2=O	28.3 µM	< 50%	88.1 µM	101 µM	29.9 µM	41.9 µM	50 µM (≈ 25.9 µg/mL)	> 6.25 µg/mL		
CN1CC(c2ccccc2Cl)[C@@]2(CSc3ccccc3C2=O)C12C(=O)c1ccccc1C2=O (single isomer, unassigned)	10.1 µM	< 50%	97.2 µM	86 µM	47.2 µM	66.5 µM	100 µM (≈ 47.4 µg/mL)	> 6.25 µg/mL		
CN1C[C@@H](c2ccccc2)[C@@]2(CSc3ccccc3C2=O)C12C(=O)c1ccccc1C2=O	11.1 µM	< 50%	86.7 µM	104 µM	15.2 µM	27.9 µM	100 µM (≈ 44 µg/mL)	> 6.25 µg/mL		
COc1ccc([C@@H]2CN(C)C3(C(=O)c4ccccc4C3=O)[C@]23CSc2ccccc2C3=O)cc1	1.16 µM	< 50%	93.4 µM	102 µM	18.3 µM	36.5 µM	50 µM (≈ 23.5 µg/mL)	> 6.25 µg/mL		
O=C1c2ccccc2C(=O)C12N1CSC[C@@H]1[C@@H](c1cccc(Br)c1)[C@@]21CSc2ccccc2C1=O	38.3 µM	< 50%	79.6 µM	84.8 µM	17.2 µM	35.5 µM	50 µM (≈ 28.1 µg/mL)	> 6.25 µg/mL		
CN1C[C@@H](c2cccs2)[C@@]2(CSc3ccccc3C2=O)C12C(=O)c1ccccc1C2=O	21.2 µM	< 50%	95.9 µM	123 µM	25.9 µM	44.6 µM	100 µM (≈ 44.6 µg/mL)	> 6.25 µg/mL		
NNC(=O)c1ccncc1 [ISONIAZID]						0.29 µM	0.31 µM (≈ 0.0425 µg/mL)	> 6.25 µg/mL		
O=C1c2ccccc2C(=O)C12N1CSC[C@@H]1C(c1ccc(Cl)cc1Cl)[C@@]21CSc2ccccc2C1=O (single isomer, unassigned)	19.5 µM	< 50%	101 µM	105 µM	2.87 µM	4.6 µM	6.25 µM (≈ 3.45 µg/mL)	> 6.25 µg/mL	12	4
CN1C[C@@H](c2cccc(F)c2)[C@@]2(CSc3ccccc3C2=O)C12C(=O)c1ccccc1C2=O	24.6 µM	< 50%	82.1 µM	108 µM	4.28 µM	9.86 µM	25 µM (≈ 11.4 µg/mL)	> 6.25 µg/mL		
CN1CC(c2ccc(Cl)cc2Cl)[C@@]2(CSc3ccccc3C2=O)C12C(=O)c1ccccc1C2=O (single isomer, unassigned)	24.1 µM	< 50%	90 µM	107 µM	1.07 µM	1.98 µM	6.25 µM (≈ 3.18 µg/mL)	> 6.25 µg/mL	37	12
O=C1c2ccccc2C(=O)C12N1CSC[C@@H]1[C@@H](c1ccccc1Br)[C@@]21CSc2ccccc2C1=O								> 6.25 µg/mL		
COc1ccc([C@@H]2[C@H]3CSCN3C3(C(=O)c4ccccc4C3=O)[C@]23CSc2ccccc2C3=O)cc1	1.1 µM	< 50%	97.2 µM	86 µM	12.9 µM	24.6 µM	50 µM (≈ 25.7 µg/mL)	> 6.25 µg/mL		
